Reference: patent US12648565B2, “Post-emergence herbicide” (Belvedere Foliar LLC, priority 2017, dated 2026)
Like-named read-outs stand apart in the source and are kept apart here.

Key:
[1] = tested on: monocotyledonous grass and liliaceae species (Pasture Blend 2, Allium cepa); experiment: Trial 41: greenhouse foliar spray trial, monocots, visual toxicity scoring; type: in vivo, grasses of pasture seed blend; details: 2.0M; Plants P-2 and 2
Excerpt: (§1) FIG. 5 depicts the average toxicity scores for the four plants tested in Trial 41, which tested an embodiment of an herbicide composition and method of using the same. The plants were numbered 22, 2, 3, and 10, corresponding to mixed monocotyledonous and dicotyledonous Pasture Blend 2 and Allium cepa (Onion “Torpedo Red”), and dicotyledonous Antirrhinum majus (Snapdragon) and Cineraria meritima (Dusty Miller, “Silver Dust” (Refer to Tables 4A and 4B for plant species identification). Both of the samples S-1 and S-2 were solutions of 2.0 Molar of ammonium sulfate having a pH of 5.5. (Refer to Tables 6A and 6B for trial solutions, details and results). Results of Trial 41: For broadleaf (dicotyledonous) species of Sample S-1 at 2.0 Molar concentration, excellent phytotoxic effects from 4.0 to 5.0 (“severe-to-fatal”) resulted from Day 3 through trial conclusion at Day 23. For monocotyledonous grass and liliaceae species of Sample S-2 at 2.0 Molar concentration, an initial moderate effect of 3.0 had decreased to 2.3 (“slight”). […] Dicots included in the Pasture 2 samples of S-1 and S-2 were all dead by Day 7. However, separate toxicity results for the monocots and dicots present in the Pasture Blend 2 mix were not recorded, and are not presented in FIG. 5.
(§2) In Trial 41, the herbicide comprised Ammonium sulfate […]; molarity 2.0; unadjusted pH approx. 5.5. […]

[2] = tested on: broadleaf (dicotyledonous) species (Antirrhinum majus, Cineraria meritima); experiment: Trial 41: greenhouse foliar spray trial, dicots, visual toxicity scoring; type: in vivo; details: solutions “B”, 2.0M; Plant 3 and 10; by test conclusion at Day 23
Excerpt: as §1, §2

[3] = tested on: weeds growing in soil; type: in vivo
[4] = tested on: Pasture Blend 1, Calendula officinalis (Common marigold), Cineraria meritima (Dusty miller) (plants 21, 7, 10); experiment: Trial 13: greenhouse foliar spray trial, visual toxicity scoring; type: in vivo; details: Day 11
Excerpt: (§3) The majority of greenhouse trials conducted to date have been of one basic design: • 1. Samples of different species of flowering plant and grass are exposed to different formulations of the herbicide in accordance with some embodiments, prepared in a range of concentrations, in combination with potentially suitable adjuvants, and applied as an aquatic spray. Experimental plants are purchased either from a local nursery, grown from ornamental and weed seed packs, or grown from seeds of a custom blend prepared specifically for this project and listed in Table 4B. The experimental variable in a typical test is the molar mass concentration of the nutrient salt being examined. Other factors including pH, nitrogen source, and the amount and composition of surfactant or penetrant are constants within a trial except when one of these factors is itself the variable of interest in the experiment. Experiments are controlled unless irrelevant for a particular test. • 2. […] Plants are sprayed with the experimental formulation, always in late afternoon (greenhouse tests), or in early morning (field tests), are observed over as many as several weeks, and their visible state of decline scored by the same examiner on a 9 points system relying on visual effects of toxicity. […]

[5] = tested on: the three grasses in P-2 (Pasture Blend 2); experiment: Trial 46: greenhouse foliar spray trial, grasses, visual toxicity scoring; type: in vivo, Lolium perenne, Dactylis glomerata, Festuca arundinacea; details: Day 8 through Day 18
Excerpt: (§4) FIG. 9 is a graph showing the average toxicity scores for the […] plants tested in Trial 46, which tested an embodiment of an herbicide composition and method of using the same. The plants were numbered P2, 5, 11A, and 13, corresponding to Pasture Blend 2, Brassica oleracea (Kale), Dichondra repens, Fragraia x ananassa Strawberry (Refer to Tables 4A and 4B for plant species identification). Solutions S-1 and S-2 correspond to solutions of Monopotassium phosphate (KH2PO4) at concentrations of 2.0 molarity (Solution 1) and 1.5 molarity (Solution 2). […] The adjuvants in Trial 46 were […] silicone surfactant and methylated seed oil (MSO).
(§5) The majority of greenhouse trials conducted to date have been of one basic design: • 1. Samples of different species of flowering plant and grass are exposed to different formulations of the herbicide in accordance with some embodiments, prepared in a range of concentrations, in combination with potentially suitable adjuvants, and applied as an aquatic spray. […] Plants are sprayed with the experimental formulation, always in late afternoon (greenhouse tests), or in early morning (field tests), are observed over as many as several weeks, and their visible state of decline scored by the same examiner on a 9 points system relying on visual effects of toxicity. […]

[6] = tested on: broadleaf (dicot) samples: Brassica oleracea (Kale), Dichondra repens, Fragraia x ananassa (Strawberry); experiment: Trial 46: greenhouse foliar spray trial, broadleaf (dicot) samples, visual toxicity scoring; type: in vivo, Fragaria x ananassa
Excerpt: as §4, §5

[7] = tested on: plants; experiment: Example 13: micronutrient salt composition applied to plants as in Example 1, toxicity scoring; type: in vivo; details: after a period of 3-30 days
Method: Toxicity scoring is performed as described in Table 7.

[8] = tested on: Pasture Blend 2, Allium cepa (Onion), Cineraria maritima (Dusty miller), Antirrhinum majus (Snapdragon); experiment: Trial 44: greenhouse foliar spray trial, visual toxicity scoring; type: in vivo
Excerpt: The majority of greenhouse trials conducted to date have been of one basic design: • 1. Samples of different species of flowering plant and grass are exposed to different formulations of the herbicide in accordance with some embodiments, prepared in a range of concentrations, in combination with potentially suitable adjuvants, and applied as an aquatic spray. Experimental plants are purchased either from a local nursery, grown from ornamental and weed seed packs, or grown from seeds of a custom blend prepared specifically for this project and listed in Table 4B. The experimental variable in a typical test is the molar mass concentration of the nutrient salt being examined. Other factors including pH, nitrogen source, and the amount and composition of surfactant or penetrant are constants within a trial except when one of these factors is itself the variable of interest in the experiment. Experiments are controlled unless irrelevant for a particular test. • 2. Standard techniques to reduce experimental error are employed including use of controls; standard spray application pressures; standardized growing conditions, growing medium, containers, and source irrigation water; and preparation and shipping of samples for laboratory analysis according to required standard laboratory protocols. • 3. Plants are sprayed with the experimental formulation, always in late afternoon (greenhouse tests), or in early morning (field tests), are observed over as many as several weeks, and their visible state of decline scored by the same examiner on a 9 points system relying on visual effects of toxicity. (Table 5.)
Scores of half-value are also used: 0, 0.5, 1.0, 1.5, 2.0, 2.5, etc. • 4. The estimated successful herbicidal effectiveness of a formulation was determined from a combination of averaged and cumulative scores of 4.0 to 5.0 observed approximately 14 days or longer after application: “All leaves and flowers if present desiccated, browned, wilted, and stems or blades lodged; no green tissue visible; no regrowth from roots visible.”
S-1 corresponds to the highest concentration of active nutrient tested, S-3 corresponds to the lowest concentration of nutrient tested and S-2 represents an intermediate level.

[9] = tested on: the grass species in the trial; experiment: Trial 64: greenhouse foliar spray trial, grass species; type: in vivo, grasses of pasture seed blend; details: 0.5 molarity; Days 12 through 34
Excerpt: as §3

[10] = tested on: all broadleaf species in the trial; experiment: Trial 64: greenhouse foliar spray trial, broadleaf species; type: in vivo; details: 0.5 molarity; Days 12 through 34
Excerpt: as §3

Question: Which results are given for `N.N.O=S(=O)(O)O` [Ammonium sulfate]?
Answer: responsiveness (in words) [1]: considerably less responsive; toxicity level (in words) [2]: severe-to-fatal; herbicidal effects on the weed plants ([3]; aqueous solution with citric acid and a surfactant, sprayed): has herbicidal effects

Question: How did the average toxicity score ([4]; 1.0M) turn out when `O=C([O-])CC(O)(CC(=O)[O-])C(=O)[O-].[K+].[K+].[K+]` [K-citrate, potassium citrate] was run?
Answer: 4.0

Question: And the average toxicity score ([4]; […])?
Answer: 4.3

Question: How did the “phytotoxic effect (in words)” value ([5]; 1.5 molar test solution) turn out when `O=P([O-])(O)O.[K+]` [Mono-potassium phosphate] was run?
Answer: minimal effect

Question: And the “phytotoxic effect (in words)” value ([5]; 2.0 molar test solution)?
Answer: minimal effect

Question: And the “phytotoxic effect (in words)” value ([6]; 1.0M solution (so in the source), Days 8 through 18)?
Answer: severe-to-fatal

Question: What about the “phytotoxic effect (in words)” value ([6]; 2.0 molar test solution, Day 8 through Day 18, broadleaf samples (dicots)) of the same compound?
Answer: Severe-to-fatal

Question: How did the plant death [7] turn out when `O.O=S(=O)([O-])[O-].[Zn+2]` [Zn sulfate monohydrate] was run?
Answer: plant death is observed

Question: With `O=S(=O)([O-])[O-].[Zn+2]` [ZnSO4, Zinc Sulfate] as the compound, how does the average toxicity score ([8]; 1.0M, first of three values for “Days 521 through 32”) read?
Answer: 4.3

Question: What about the average toxicity score ([8]; 1.0M, second of three values for “Days 521 through 32”) of the same compound?
Answer: 4.4

Question: What about the average toxicity score ([8]; 1.0M, third of three values for “Days 521 through 32”) of the same compound?
Answer: 4.2

Question: What about the average toxicity score ([8]; 1.0 molar solution, Day 21 through Day 32) of the same compound?
Answer: approximately 4.5

Question: And the average toxicity score ([8]; 2.0 molar solution, Day 9)?
Answer: 3.9

Question: For `O=[N+]([O-])[O-].O=[N+]([O-])[O-].[Ca+2]` [calcium nitrate], which “herbicidal effects on the weed plants” value ([3]; in vivo) is on record?
Answer: has herbicidal effects

Question: Which “phytotoxic control (in words)” value [9] does the source give for `O.O.O.O.O=BOB1OB(OB=O)OB2OB([O-])OB([O-])OB(O1)O2.[Na+].[Na+]` [disodium octaborate tetrahydrate] here?
Answer: Partial control

Question: What about the “phytotoxic control (in words)” value [10] of the same compound?
Answer: Excellent phytotoxic control

Question: How did the “herbicidal effects on the weed plants” value ([3]; in vivo) turn out when `O=[N+]([O-])[O-].O=[N+]([O-])[O-].[Mg+2]` [magnesium nitrate] was run?
Answer: has herbicidal effects
